Reference: paper PMC12133102, “Deciphering the Physical Binding Mechanism of Enzyme–Photosensitizer Facilitates Catalysis-Augmented Photodynamic Therapy” (Research, 2025)

Target: T1, HSA (human serum albumin) (Homo sapiens, UniProt P02768)
T1 construct: gene ALB; commercial HSA (Shanghai Yuanye); amine-coupled to CM5 chip
Assay: SPR (Biacore T200, immobilized protein on CM5)
Format: binding

T1 sequence (P02768 25-609): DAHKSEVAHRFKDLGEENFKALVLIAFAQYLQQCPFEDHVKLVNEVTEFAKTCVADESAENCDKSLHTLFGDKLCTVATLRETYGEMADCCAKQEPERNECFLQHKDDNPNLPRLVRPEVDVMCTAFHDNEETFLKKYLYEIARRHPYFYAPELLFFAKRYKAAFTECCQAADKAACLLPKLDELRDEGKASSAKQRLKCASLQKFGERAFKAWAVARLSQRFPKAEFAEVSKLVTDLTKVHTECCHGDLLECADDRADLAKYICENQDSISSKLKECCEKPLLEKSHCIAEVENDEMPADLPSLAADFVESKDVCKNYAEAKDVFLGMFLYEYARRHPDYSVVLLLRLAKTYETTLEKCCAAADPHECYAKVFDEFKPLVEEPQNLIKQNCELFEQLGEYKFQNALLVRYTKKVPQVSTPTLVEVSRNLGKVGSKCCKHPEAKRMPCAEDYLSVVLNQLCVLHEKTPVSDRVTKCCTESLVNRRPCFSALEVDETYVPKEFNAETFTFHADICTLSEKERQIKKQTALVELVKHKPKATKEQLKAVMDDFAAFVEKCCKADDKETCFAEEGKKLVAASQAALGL

- Kd: 2120 nM
SMILES: C=Cc1c(C)c2cc3nc(c(CC(=O)O)c4[nH]c(cc5nc(cc1[nH]2)C(C)=C5CC)c(C)c4C(=O)O)[C@@H](CCC(=O)O)[C@@H]3C [Ce6]
